The values that follow come from US9676715B2, “Bis-indolic derivatives, a process for preparing the same and their uses as a drug” (UNIVERSITE JOSEPH FOURIER, priority 2011, dated 2017).

The subject of experiment [1] is Staphylococcus aureus 1199B (overexpression of the NorA efflux pump). Briefly: Efflux pump inhibition assay with sub-inhibitory ciprofloxacin. In kind it is cell-based. Particulars: S. aureus 1199B. Here is the method:
The efflux pump inhibition potential of the bis-indolic derivatives was tested using two steps.
The following experimental protocol was used: indolic derivatives (initially solubilised in DMSO at 10 mg/mL) were dispensed in a 96-wells microplate by two fold serial dilutions in Muller-Hinton medium (MH, Bio Rad) using a Biomek 2000 (Beckman) handling robot. 100 μL of the bacterial inoculum (an overnight culture at 37° C. in 5 mL MH diluted 100-fold) was then added in each well. The total volume was 200 μL in each well and the final bacteria concentration 10^6 CFU/mL (CFU: colony forming unit). The highest final indolic derivative concentration was 128 mg/L. Growth was assayed with a microplate reader by monitoring absorption at 620 nm after 1, 2, 5, 7 and 24 h incubation at 37° C. In addition, the plates were read visually after 24 hours incubation. Cultures containing 5 μL DMSO were used as growth controls. In addition, two controls containing a sub-inhibitory or a inhibitory antibiotic concentration for the tested strain were performed. The antibiotics used were ampicillin (0.5 and 32 μg/mL) for E. coli, kanamycin (0.5 and 16 μg/mL) for S. aureus ATCC 25923, ciprofloxacin (4 and 64 mg/L) for S. aureus 1199B, ciprofloxacin (0.5 and 2 mg/L) for S. aureus K2378. All experiments were performed in duplicate.
Efflux pump inhibition assays were then performed against resistant Staphylococcus aureus strains SA 1199B and SA K2378 for bis-indolic derivatives. […] The minimal inhibitory concentration (MIC) of the bis-indolic compound allowing a complete inhibition of the bacterial growth in the presence of ciprofloxacin was determined.

For experiment [2], the system named is KB (human mouth carcinoma). Put plainly: In vitro cytotoxicity. Format: cell-based. Particulars: read-out: % of cellular growth inhibition; for inhibition at 10 µM: 10^−5 M; for inhibition at 1 µM: 10^−6 M. Here is the method:
(§1) In vitro cytotoxicity was assayed on three cell lines—KB (human mouth carcinoma), MCR5 (human lung fibroblast) and HCT116 (human colon tumor). Results are presented in table IV as % of cellular growth inhibition in presence of 10^−5 M and 10^−6 M of the tested bis-indolic derivatives.

Experiment [3] concerns HCT116 (human colon tumor). Put plainly: In vitro cytotoxicity. In kind it is cell-based. Particulars: read-out: % of cellular growth inhibition; for inhibition at 10 µM: HCT-116, 10^−5 M; for inhibition at 1 µM: HCT-116, 10^−6 M. Here is the method:
as §1

The test system of experiment [4] is MRC5 (human lung fibroblast). Put plainly: In vitro cytotoxicity. Particulars: read-out: % of cellular growth inhibition; for inhibition at 10 µM: 10^−5 M; for inhibition at 1 µM: 10^−6 M. Format: cell-based. Here is the method: as §1
For experiment [5], the system named is S. epidermidis CIP 81.55. Put plainly: MIC, microdilution method (9.1). In kind it is cell-based, Staphylococcus epidermidis. Particulars: Staphylococcus epidermidis, CIP81, read after 18 h, read-out: MIC. Put shortly: (§2)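 CLSI microdilution (M07-A8); MH broth; 5×10^5 CFU/ml final; 2-fold series 0.50-128 mg/L final; 37° C., ambient air.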
A general note: Broth dilution looks for growth in wells or tubes with falling amounts of substance.

In experiment [6] the test system is S. epidermidis CIP 103627. Put plainly: MIC, microdilution method (9.1). Format: cell-based, Staphylococcus epidermidis. Particulars: Staphylococcus epidermidis, CIP103627, read after 18 h, read-out: MIC. Put shortly: as §2
Experiment [7] concerns S. aureus ATCC 25923. Put plainly: Concentration-killing curves. In kind it is cell-based, Staphylococcus aureus. Particulars: concentrations up to 128 mg/L, after 18 h of incubation. Here is the method: FIGS. 1A and 1B present concentration-killing curves for the indolic compounds 3f and 4 against S. aureus ATCC 25923. The activity is evaluated after 18 h incubation of S. aureus cultures in the presence of the tested compound.
The area between the horizontal full line and the dashed line corresponds to a bacteriostatic effect and the area below the dashed line corresponds to a bactericidal effect (i.e., ≧3 log reduction of the primary bacterial inoculum after 18 h incubation of cultures in the presence of the tested compound).
The method described by Motyl et al. [M. Motyl, K. Dorso, J. Barrett, R. Giacobbe, Basic Microbiological Techniques Used in Antibacterial Drug Discovery. Current Protocols in Pharmacology. UNIT 13A.3. January, 2006] was used.
Killing curves corresponded to the measure of the kinetic of bactericidal activity of indolic compounds over time (time-kill curves) or after 18 h incubation of cultures according to different drug concentrations (concentration-killing curves). […] Bacterial inocula are determined in each tube using the CFU count method at the beginning of the experiments, and then after 18 h for concentration-killing curves, or after 1 h, 2 h, 4 h, 8 h and 18 h for time-kill curves. […]

Setting [8] is: in the presence of ciprofloxacin 4 mg/L.

SMILES strings stand for the structures. Values after ≈ are worked out from the molar mass of the structure shown.

The term inhibition denotes the drop in the measured response relative to a control, in per cent. What is called MIC is the lowest concentration that inhibits growth of the organism.

In the case of `Cn1cc(C(=O)NC(CNC(=O)OC(C)(C)C)c2c[nH]c3ccc(Br)cc23)c2cc(Br)ccc21` (centres unmarked) [Compound 7, tert-Butyl (2-(5-bromo-1-methyl-1H-indole-3-carboxamido)-2-(5-bromo-1H-indol-3-yl)ethyl) carbamate], the results for the “MIC, mg/L (Ciprofloxacin concentration, mg/L)” value in experiment [1] (in the presence of ciprofloxacin 1 mg/L), in experiment [1] (in the presence of ciprofloxacin 2 mg/L) and in experiment [1] (setting [8]) were 4 (1) mg/L, 1 (2) mg/L and 0.25 (4) mg/L, respectively. Further, the inhibition at 10 µM in experiment [2] amounted to 52 ± 2%; in experiment [3] it was 35 ± 3%; in experiment [4], 23 ± 6%. Besides, the inhibition at 1 µM in experiment [2] was 2%; in experiment [3], 8%; in experiment [4], 12%. Moreover, the minimum inhibitory concentration (MIC) in experiment [5] and in experiment [6] was over 128 mg/L each time.

As to `CC(C)(C)OC(=O)NCC(NC(=O)c1c[nH]c2ccc(Br)cc12)c1c[nH]c2ccc(Br)cc12` (centres unmarked) [Compound 3f, tert-Butyl(2-(5-bromo-1H-indol-3-yl)-2-(5-bromo-1H-indolyl-3-carboxamido)ethyl)carbamate], the inhibition at 10 µM in experiment [2] came to 97 ± 1%; in experiment [3], 89 ± 9%; in experiment [4], 91 ± 10%. Besides, the inhibition at 1 µM in experiment [2], in experiment [3] and in experiment [4] was 0% in each case. The minimal inhibitory concentration (MIC) was 2 mg/L (≈ 3.47 µM) in experiment [5] and 1 mg/L (≈ 1.74 µM) in experiment [6]. In addition, the “bactericidal activity (concentration-killing curve)” value in experiment [7] is listed as “no detectable bactericidal activity”.

Take `CC(NC(=O)c1c[nH]c2ccc(Br)cc12)c1c[nH]c2ccc(Br)cc12` (centres unmarked) [Compound 4, 5-Bromo-N-(1-(5-bromo-1H-indol-3-yl)ethyl)-1H-indole-3-carboxamide]: the inhibition at 10 µM in experiment [2] was 13 ± 3%; in experiment [3], 12 ± 1%; in experiment [4], 36 ± 4%. Moreover, the inhibition at 1 µM in experiment [2] was found to be 0%; in experiment [3] it was 0%; in experiment [4] it was 7%. The results for the MIC in experiment [5] and in experiment [6] were 2 mg/L (≈ 4.34 µM) and 4 mg/L (≈ 8.67 µM), respectively. The “bactericidal activity (concentration-killing curve)” value in experiment [7] is reported as “no detectable bactericidal activity”.

`NCCCCNC(=O)C(NC(=O)c1c[nH]c2ccc(Br)cc12)c1c[nH]c2ccc(Br)cc12` (centres unmarked) [Compound 16, N-(2-((4-Aminobutyl)amino)-1-(5-bromo-1H-indol-3-yl)-2-oxoethyl)-5-bromo-1H-indole-3-carboxamide]: in experiment [1] (setting [8]), the “MIC, mg/L (Ciprofloxacin concentration, mg/L)” value was 1 (4) mg/L. The MIC in experiment [5] and in experiment [6] was 8 mg/L (≈ 14.3 µM) each time.
